Data published in ChEMBL document CHEMBL4483862, “Open-source discovery of chemical leads for next-generation chemoprotective antimalarials” (2018).

Tested on: Plasmodium berghei
Assay: Luciferase/luciferin-expressing antifolate-resistant parasites were used to infect a culture of HepG2 cells that were pre-incubated with compounds. Infected hepatocytes emit light due to the luciferase reaction. Assay results are presented as the percent inhibition of light emission compared to control. […]
Format: functional
Settings: sporozoite; for IC50: read-out: LUCIFERASE INFECTION ASSAY - IC50; for IC90: read-out: LUCIFERASE INFECTION ASSAY - IC90

| Compound | IC50 [µM] | IC90 [µM] |
| --- | --- | --- |
| Cc1ccc(NC(=O)c2ccc(Cl)c(NC(=O)c3cccs3)c2)cc1 | > 8.9 | > 8.9 |
| Cc1ccc(CSc2nnc(-c3ccccc3N)c(O)n2)cc1 | > 10.2 | > 10.2 |
| Brc1ccc(CNc2ccc3ncccc3c2)cc1 | > 10.5 | > 10.5 |
| COc1cc2c(cc1NC(=O)c1cccc(F)c1)CCCC2 | 4.59 | > 11 |
| CCOc1ccccc1NC(=O)CN(C)S(=O)(=O)c1ccc(OC)c(C)c1 | > 8.41 | > 8.41 |
| O=C1c2cccnc2C(=O)N1Cc1ccc2c(c1)OCO2 | > 11.7 | > 11.7 |
| O=C(Nc1ccc(F)cc1)c1ccc(CN2CCc3ccccc3C2)cc1 | > 9.16 | > 9.16 |
| CC1CCN(CC(O)COC2CC(C)CC(C)(C)C2)CC1 (configuration not stated) | > 9.88 | > 9.88 |
| CC1CCC(C(C)C)C(OCC(O)CN2C(C)CCCC2C)C1 (configuration not stated) | > 9.12 | > 9.12 |
| CC(c1cccnc1)N(C)C(=O)c1cc(NCc2ccc3c(c2)CCO3)cc(S(=O)(=O)N2CCCC2)c1 (configuration not stated) | > 6.34 | > 6.34 |
| COc1cccc(C(=O)Nc2nc3ccc(C)cn3c2C(=O)NCC(C)C)c1 | 2.62 | 4.69 |
| CCC(C)NC(=O)c1c(NC(=O)c2ccc(F)cc2F)nc2ccc(C)cn12 (configuration not stated) | 2.9 | 3.23 |
| Cc1ccc(NC(=O)CSc2ccc(Nc3ccc(C)cc3)nn2)cc1 | > 9.05 | > 9.05 |
| Cc1ccc(C(C)CCN2CCc3c(c(C(=O)NCc4nccs4)nn3CC3CC3)C2)o1 (configuration not stated) | > 7.28 | > 7.28 |
| CCOC(=O)C1=C(Nc2cccc(Cl)c2)S/C(=C\c2ccc(C)cc2)C1=O | > 8.25 | > 8.25 |
| Cc1ccc2nc(NC(=O)c3cccc(F)c3)c(C(=O)NC3CCCC3)n2c1 | 0.886 | 1.08 |
| CCCCNC(=O)c1c(NC(=O)c2ccc(OC)cc2)nc2c(C)cccn12 | > 8.67 | > 8.67 |
| CCC(CC)CN1C[C@H](OCc2ccccc2)C[C@H]1C(=O)NC(c1ccccc1)c1ccccc1 | > 7.01 | > 7.01 |
| CCSc1ccccc1C(=O)Nc1ccc(C(=O)OC)cc1 | > 10.5 | > 10.5 |
| O=C1N(CCCc2cccnc2)C(=O)C2(CCN(Cc3ccsc3)CC2)N1Cc1ccccc1 | > 6.95 | > 6.95 |
| O=C(c1csc2c1CCCC2)N1CCc2c(c(C(=O)N3CCCC3)nn2Cc2ccncc2)C1 | > 6.94 | > 6.94 |
| CCC(CC)CN1CCC2(CC1)C(=O)N(Cc1ccc(OC)cc1)C(=O)N2CC(C)C | > 7.68 | > 7.68 |

| Compound | IC50 [µM] | IC90 [µM] |
| --- | --- | --- |
| O=C(Nc1cccc(Cl)c1)OCc1ccccc1F | > 11.8 | > 11.8 |
| Cc1ccc(C(C)CCN2CCc3c(c(C(=O)NCc4nccs4)nn3Cc3ccccc3)C2)o1 (configuration not stated) | > 6.74 | > 6.74 |
| CC1=NN(c2ccc(C)c(Cl)c2)C(=O)/C1=C\c1ccc2c(c1)OCO2 | > 9.3 | > 9.3 |
| Cc1ccc(CC2CC(=O)N(C3CCCCC3)C2=O)cc1 (configuration not stated) | > 11.6 | > 11.6 |
| Cc1cccc(C(=O)Nc2sc3c(c2C(=O)N2CCCCC2)CCCCC3)c1 | 0.805 | 6.3 |
| O=C(Nc1ccc(Cl)c(Cl)c1)Nc1ccc2c(c1)OCCO2 | > 9.73 | > 9.73 |
| Cc1ccc(C)c(CN2CCC3(CC2)C(=O)N(CCCc2cccnc2)C(=O)N3Cc2ccccc2)c1 | 4.38 | 5.55 |
| COCCN1C=C(C(=O)OC)C(c2cccc(O)c2)C(C(=O)OC)=C1 | > 9.5 | > 9.5 |
| COc1ccc(CN2C(=O)N(CC(C)C)C3(CCN(Cc4c[nH]c5ccccc45)CC3)C2=O)cc1 | 6.77 | > 6.95 |
| COc1ccc(-c2cc3c(n(C)c2=O)CCN(C(=O)C(C)n2nc(C)cc2C)C3)c2ccc(C)nc12 (configuration not stated) | > 6.8 | > 6.8 |
| COc1cccc(Cn2nc(C(=O)NC3CC3)c3c2CCN(C(=O)c2cc4ccccc4[nH]2)C3)c1 | > 7.03 | > 7.03 |
| CCCN(CCC(=O)Nc1cccc(Cl)c1)CC1CC1 | > 11.2 | > 11.2 |
| CC(C)c1ccc(OCC(=O)Nc2ccccc2C(F)(F)F)cc1 | > 9.78 | > 9.78 |
| CCOC(=O)c1nn(CC2CC2)c2c1CN(CC(C)Cc1ccc3c(c1)OCO3)CC2 (configuration not stated) | > 7.76 | > 7.76 |
| COCCNc1nc(-c2ccc(Cl)cc2)nc2ccccc12 | > 10.5 | > 10.5 |
| CCOC(=O)c1ccc2c(c1)C1C=CCC1C(c1cccnc1)N2 (configuration not stated) | > 10.3 | > 10.3 |
| Cc1ccc2nc(NC(=O)c3ccc(C(F)(F)F)cc3)c(C(=O)NC3CCCC3)n2c1 | 0.593 | 1.95 |
| Cc1ccccc1OCCOC(=O)Nc1ccccc1 | > 12.2 | > 12.2 |
| Cc1ccc(C(C)(C)CC(C)NCc2ccc(Cl)cc2)o1 (configuration not stated) | > 10.8 | > 10.8 |
| CCOc1ccc(C2NC(=O)NC(C)=C2C(=O)OCC2CCCO2)cc1OC (configuration not stated) | > 8.45 | > 8.45 |
| COCCNCCOc1ccc(OCc2ccccc2)cc1 | > 10.9 | > 10.9 |
| COC(=O)c1c(NC(C)=O)c2cc(NC(C)Cc3ccccc3F)cnc2n1CCC(C)C (configuration not stated) | > 7.26 | > 7.26 |

| Compound | IC50 [µM] | IC90 [µM] |
| --- | --- | --- |
| CCCCNC(=O)c1c(NC(=O)c2c(F)cccc2F)nc2ccc(C)cn12 | 5.12 | 6.69 |
| CC(C)CN(CC(C)C)CC(O)COc1ccccc1 (configuration not stated) | > 11.8 | > 11.8 |
| CN1CCN(S(=O)(=O)c2cc(C(=O)NCc3ccccc3F)cc(-c3ccccc3)c2)CC1 | 6.09 | > 7.06 |
| COC(=O)c1c(NC(C)=O)c2cc(NC(C)CC(C)C)cnc2n1CCC(C)C (configuration not stated) | > 8.2 | > 8.2 |
| CN1C(=O)N(CCc2ccccc2)C(=O)C12CCN(Cc1ccc3c(c1)Cc1ccccc1-3)CC2 | 6.49 | > 7.09 |
| Cc1cccn2c(C(=O)NC3CCCCC3)c(NC(=O)c3cccc(F)c3)nc12 | > 8.37 | > 8.37 |
| CCCNC(=O)c1c(NC(=O)c2cccc(F)c2)nc2ccccn12 | 4.52 | 7.76 |
| Fc1ccc(CN2CCN(Cc3ccco3)CC2)cc1 | > 12 | > 12 |
| Cc1ccc(Cn2nnc(-c3ccccc3C)n2)cc1 | > 12.5 | > 12.5 |
| O=C(Nc1nc2ccccn2c1C(=O)NC1CCCC1)c1ccc(F)cc1F | 2.94 | 3.49 |
| O=C(Nc1nc2ccccn2c1C(=O)NC1CCCC1)c1ccc(F)cc1 | > 9.01 | > 9.01 |
| COC(=O)c1c(NC(=O)c2cccnc2)c2cc(NCC(C)C)cnc2n1CC(C)C | > 7.79 | > 7.79 |
| Cc1ccc2nc(NC(=O)c3ccccc3)c(C(=O)NC3CCCC3)n2c1 | 3.06 | 3.58 |
| Cc1ccc(C)c(OCC(O)CN2CCc3ccccc3C2)c1 (configuration not stated) | > 9.49 | > 9.49 |
| CCc1c(C)[nH]c2c(-c3ccc(Cl)cc3)cnn2c1=O | 5.93 | 11 |
| O=C(c1ccco1)N(Cc1nccs1)c1ccc(-c2ccccc2)cc1 | > 9.16 | > 9.16 |
| CCn1nc(C)c(CN2CCC3(CC2)C(=O)N(Cc2ccccc2)C(=O)N3CCc2ccccc2)c1C | 2.92 | > 6.6 |
| CCOc1ccc(NC(=O)CCOc2cccc(C)c2)cc1 | > 11 | > 11 |
| CCOc1ccccc1C(=O)NCCc1cccc(Cl)c1 | > 10.9 | > 10.9 |
| CCCCNC(=O)c1c(NC(=O)c2ccccc2C)nc2ccc(C)cn12 | 6.48 | > 9.05 |
| CCCCNC(=O)c1c(NC(=O)c2cccc(F)c2)nc2ccc(C)cn12 | 1.29 | 2.84 |
| C=CCNC(=O)CN(c1ccc(Br)cc1)S(C)(=O)=O | > 9.5 | > 9.5 |

| Compound | IC50 [µM] | IC90 [µM] |
| --- | --- | --- |
| Cc1[nH]c2c(-c3ccccc3)c(C(F)(F)F)nn2c(=O)c1Cc1ccccc1 | 7.44 | > 8.61 |
| Cc1c(Cl)cccc1-c1ccc(C(=O)NCc2ccco2)o1 | > 10.5 | > 10.5 |
| CCc1ccccc1N(CC(=O)NCC(C)C)S(=O)(=O)c1ccc(C)cc1 | > 8.49 | > 8.49 |
| CC1=C(C(=O)OCc2ccccc2)C(c2ccc(C(F)(F)F)cc2)CC(=O)N1 (configuration not stated) | > 8.48 | > 8.48 |
| CNC(=O)c1nn(CCc2ccccc2)c2c1CC(NCCC(C)C)CC2 (configuration not stated) | > 8.95 | > 8.95 |
| CCOc1cc(/C=C/c2ccc3cccc(O)c3n2)cc(Br)c1O | 3.28 | 3.78 |
| CN(C)C(=O)N1CCC(C(=O)N2CC(=O)N(C3CCCCC3)CC(OCc3ccncc3)C2)CC1 (configuration not stated) | > 6.8 | > 6.8 |
| CCC(C)NC(=O)c1c(NC(=O)c2ccc(Cl)cc2)nc2ccc(C)cn12 (configuration not stated) | 2.58 | 3.02 |
| COc1cccc(CC(=O)N2C[C@H](OC)C[C@H]2C(=O)NCC2CCCCC2)c1 | > 8.49 | > 8.49 |
| CC(C)N1C(=O)N(CCc2ccccc2)C2(CCN(C3Cc4ccccc4C3)CC2)C1=O | 6.55 | > 7.65 |
| CCN1CCC(Nc2cnc3c(c2)c(NC(=O)Cc2ccccc2)c(C(=O)OC)n3CC(C)C)CC1 | 5.59 | > 6.71 |
| C/C(=C\c1ccco1)CN1CCc2c(c(C(=O)NCc3ccccn3)nn2CCc2ccccc2)C1 | > 6.85 | > 6.85 |
| COC(=O)c1c(NC(=O)c2ccoc2)c2cc(NC(C)CC(F)(F)F)cnc2n1CC(C)C (configuration not stated) | > 7.07 | > 7.07 |
| COc1ccc(CNCc2ccc3ccccc3c2)cc1 | > 11.9 | > 11.9 |
| Cc1ccccc1-c1ccc(CN2CCC3(CC2)C(=O)N(Cc2cccnc2)C(=O)N3C)cc1 | 2.36 | 2.76 |
| COc1ccc(C2CC(=O)Nc3ccc4ccccc4c32)c(OC)c1OC (configuration not stated) | > 9.08 | > 9.08 |
| CCN1C(=O)N(C2Cc3ccccc3C2)C(=O)C12CCN(Cc1c[nH]nc1-c1ccc(F)cc1)CC2 | 4.54 | > 6.77 |
| CCCCNC(=O)c1c(NC(=O)c2cccc(OC)c2)nc2ccc(C)cn12 | 2.79 | 3.2 |
| COc1ccc(CCn2nc(C(=O)N(C)C)c3c2CCN(CCCc2ccccc2)C3)cc1 | > 7.39 | > 7.39 |
| COCCn1c(C(=O)OC)c(NC(=O)c2ccco2)c2cc(NC(C)Cc3ccc(C)cc3)cnc21 (configuration not stated) | 3.69 | > 6.73 |
